Measured values from patent US7435721B2, “Transport peptides such as C-terminal Erns peptide and analogues thereof” (Pepscan Systems B.V., priority 2000, dated 2008).
Values after ≈ are worked out from the molar mass of the structure shown. Like-named read-outs stand apart in the source and are kept apart here.

What was measured:
[1] = system: Escherichia coli ATCC 25922; experiment: Antimicrobial assay (MIC), E. coli; format: cell-based; conditions: overnight at 37° C.
Experimental: Antimicrobial assay. Two bacterial strains (Escherichia coli ATCC 25922 and Enterococcus faecalis ATCC 29212) were inoculated on heart infusion agar with 5% sheep blood and incubated aerobically overnight at 37° C. From the pure cultures, suspensions were made in saline to a density of 0.5 McFarland. These suspensions were diluted ten-fold in Mueller Hinton II broth, resulting in a final inoculum of approximately 10^7 cfu/ml.
Standard 96-well microtiter trays were filled with 100 ill of two-fold dilutions of peptide in physiologic salt solution in each well, resulting in the following concentration range: 4000, 2000, 1000, 500, 250, 125, 62.25, 31.63, 15.82, 7.96 and 0 μg/ml. The trays in column 12 were filled with 200 μl MH II broth (negative control).
Columns 1-11 of the microtiter trays were filled with 100 μl of the final inoculum of the bacterial suspensions, thus diluting the concentrations of the peptide two fold, resulting in the following peptide concentration range in the wells: 2000, 1000, 500, 250, 125, 62.25, 31.63, 15.82, 7.96, 3.98 and 0 μg/ml. In rows B, C and D, 100 μl of the final inoculum of E. coli and, in rows E, F and G, 100 μl of the final inoculum of E. faecalis was pipetted. The final bacterial concentration was approximately 5×10^5 cfu/well. All trays were sealed and incubated overnight at 37° C. After incubation, the microtiter trays were inspected visually for bacterial growth and the absorbance of the cultures at 630 nm (A630) was determined with an ELISA-reader. […] The experiment was performed independently in triplicate. The test was repeated again in triplicate after two days with the final peptide concentration range in the wells: 5000, 2500, 1250, 625, 312.5, 156.25, 78.12, 39.06, 19.58, 9.79, 4.88, 2.44 and 1.22 μg/ml.

guinea pig erythrocytes = experiment: Hemolytic assay, guinea pig erythrocytes; format: cell-based; conditions: 1% v/v, one hour at 37° C.
Experimental: Hemolytic assay. Hemolytic activity of various peptide concentrations was determined by incubation with human, guinea pig or sheep erythrocyte suspensions (final erythrocyte concentration, 1% v/v) for one hour at 37° C. After cooling and centrifugation, the optical density of the supernatants were measured at 540 nm. Peptide concentrations causing 50% hemolysis (EC50) were derived from the dose-response curves.

[2] = system: live cells in suspension or subconfluent monolayers; format: cell-based
skin of a live pig = conditions: transdermal transport; skin model not given
Experimental: Transdermal transport. The potential of the an E^rns peptide to penetrate the skin was tested by applying 150 μl 0.3-4 mM of biotinylated peptide in a chamber containing an isolated piece of “fresh” human breast skin or in a chamber which was glued on the skin of a live pig, or applying 50 μl of peptide solution on the skin with a cotton wool tip, or applying 50 μl of a peptide solution mixed with 50 μl of contact gel on the skin for 30 minutes to 120 minutes. After the incubation time, the pig was killed, the skin was cleaned and biopsied, and a biopsy was frozen in liquid nitrogen. Cryosections of the skin samples were fixed on microscopic slides with acetone and incubated with streptavidin-FITC ( 1/100) for 30 minutes.

CC[C@H](C)[C@H](NC(=O)[C@H](CCCNC(=N)N)NC(=O)[C@H](CC(C)C)NC(=O)[C@H](CCC(N)=O)NC(=O)[C@H](CCCNC(=N)N)NC(=O)CNC(=O)CCCC[C@@H]1SC[C@@H]2NC(=O)N[C@@H]21)C(=O)N[C@@H](C)C(=O)NCC(=O)N[C@@H](CCCCN)C(=O)N[C@@H](CCCNC(=N)N)C(=O)N[C@@H](CC(C)C)C(=O)N[C@@H](CCC(=O)O)C(=O)NCC(=O)N[C@@H](CCCNC(=N)N)C(=O)N[C@@H](CO)C(=O)N[C@@H](CCCCN)C(N)=O [205-220] was tested, and the “MIC (minimal inhibitory concentration needed to inhibit bacterial growth)” value [1] was >500 mg/L, the “Hemolysis (peptide concentration causing 50% hemolysis)” value (guinea pig erythrocytes) was >0.33 mg/mL and the “Concentration (translocation activity), optimization of E^rns peptide” value ([2]; Table 9, lower concentration = higher translocation activity) was 1.0 µM.

With “Biotin-RSRGRLRRGAIRLQRG-Lysine (MTT)- broomacetic acid [A941]” the “Accumulation in the skin compared with MDK-20” value (skin of a live pig) was “Much more accumulation in the skin”, the “Concentration (translocation activity), optimization of E^rns peptide” value [2] was 0.03 µM and the “Translocation activity (in words)” value [2] was “higher translocation activity compared with the original MDK-20”.

With CC[C@H](C)[C@H](NC(=O)[C@H](CCCNC(=N)N)NC(=O)[C@H](CC(C)C)NC(=O)[C@H](CCC(N)=O)NC(=O)[C@H](CCCNC(=N)N)NC(=O)CNC(=O)[C@H](CC(C)C)NC(=O)[C@H](Cc1c[nH]c2ccccc12)NC(=O)[C@H](CO)NC(=O)[C@@H](NC(=O)[C@@H](NC(=O)[C@H](CCCNC(=N)N)NC(=O)[C@H](C)NC(=O)[C@H](C)NC(=O)CNC(=O)[C@H](CCC(N)=O)NC(=O)[C@H](CCCNC(=N)N)NC(=O)[C@H](C)NC(=O)[C@H](CC(N)=O)NC(=O)[C@H](CCC(=O)O)NC(=O)[C@@H](NC(=O)[C@@H](NC(=O)[C@H](CC(N)=O)NC(=O)[C@@H](NC(=O)[C@H](CCSC)NC(=O)CNC(=O)[C@H](CC(=O)O)NC(=O)[C@H](CC(C)C)NC(=O)[C@H](CC(C)C)NC(=O)[C@H](Cc1ccc(O)cc1)NC(=O)[C@H](CC(C)C)NC(=O)[C@H](C)NC(=O)[C@@H](NC(=O)[C@H](CC(=O)O)NC(=O)[C@H](CCC(N)=O)NC(=O)[C@H](CC(C)C)NC(=O)[C@H](CC(C)C)NC(=O)[C@H](CO)NC(=O)CNC(=O)CCCC[C@@H]1SC[C@@H]2NC(=O)N[C@@H]21)[C@@H](C)O)[C@@H](C)O)[C@@H](C)O)[C@@H](C)CC)C(C)C)[C@@H](C)O)C(=O)N[C@@H](C)C(N)=O [172-211] the “MIC (minimal inhibitory concentration needed to inhibit bacterial growth)” value [1] was >500 mg/L and the “Hemolysis (peptide concentration causing 50% hemolysis)” value (guinea pig erythrocytes) was >0.33 mg/mL.

For CC[C@H](C)[C@H](NC(=O)[C@H](CCCNC(=N)N)NC(=O)[C@H](CC(C)C)NC(=O)[C@H](CCC(N)=O)NC(=O)[C@H](CCCNC(=N)N)NC(=O)CNC(=O)[C@H](CC(C)C)NC(=O)[C@H](Cc1c[nH]c2ccccc12)NC(=O)[C@H](CO)NC(=O)[C@@H](NC(=O)[C@@H](NC(=O)[C@H](CCCNC(=N)N)NC(=O)[C@H](C)NC(=O)[C@H](C)NC(=O)CNC(=O)[C@H](CCC(N)=O)NC(=O)[C@H](CCCNC(=N)N)NC(=O)[C@H](C)NC(=O)[C@H](CC(N)=O)NC(=O)[C@H](CCC(=O)O)NC(=O)[C@@H](NC(=O)[C@@H](NC(=O)[C@H](CC(N)=O)NC(=O)[C@@H](NC(=O)[C@H](CCSC)NC(=O)CNC(=O)[C@H](CC(=O)O)NC(=O)[C@H](CC(C)C)NC(=O)[C@H](CC(C)C)NC(=O)[C@H](Cc1ccc(O)cc1)NC(=O)CCCC[C@@H]1SC[C@@H]2NC(=O)N[C@@H]21)[C@@H](C)O)[C@@H](C)O)[C@@H](C)CC)C(C)C)[C@@H](C)O)C(=O)N[C@@H](C)C(=O)NCC(=O)N[C@@H](CCCCN)C(=O)N[C@@H](CCCNC(=N)N)C(=O)N[C@@H](CC(C)C)C(=O)N[C@@H](CCC(=O)O)C(=O)NCC(=O)N[C@@H](CCCNC(=N)N)C(=O)N[C@@H](CO)C(=O)N[C@@H](CCCCN)C(N)=O [181-220], the “MIC (minimal inhibitory concentration needed to inhibit bacterial growth)” value [1] was 51 mg/L (≈ 10.8 µM) and the “Hemolysis (peptide concentration causing 50% hemolysis)” value (guinea pig erythrocytes) was 0.09 mg/mL.

CC[C@H](C)[C@H](NC(=O)[C@H](CCCNC(=N)N)NC(=O)[C@H](CC(C)C)NC(=O)[C@H](CCC(N)=O)NC(=O)[C@H](CCCNC(=N)N)NC(=O)CNC(=O)[C@H](CC(C)C)NC(=O)[C@H](Cc1c[nH]c2ccccc12)NC(=O)[C@H](CO)NC(=O)[C@@H](NC(=O)[C@@H](NC(=O)[C@H](CCCNC(=N)N)NC(=O)CCCC[C@@H]1SC[C@@H]2NC(=O)N[C@@H]21)C(C)C)[C@@H](C)O)C(=O)N[C@@H](C)C(=O)NCC(=O)N[C@@H](CCCCN)C(=O)N[C@@H](CCCNC(=N)N)C(=O)N[C@@H](CC(C)C)C(=O)N[C@@H](CCC(=O)O)C(=O)NCC(=O)N[C@@H](CCCNC(=N)N)C(=O)N[C@@H](CO)C(=O)N[C@@H](CCCCN)C(N)=O [199-220] was tested, and the “MIC (minimal inhibitory concentration needed to inhibit bacterial growth)” value [1] was 23 mg/L (≈ 8.23 µM) and the “Hemolysis (peptide concentration causing 50% hemolysis)” value (guinea pig erythrocytes) was 0.18 mg/mL.

CC[C@H](C)[C@H](NC(=O)[C@H](CCCNC(=N)N)NC(=O)[C@H](CC(C)C)NC(=O)[C@H](CCC(N)=O)NC(=O)[C@H](CCCNC(=N)N)NC(=O)CNC(=O)[C@H](CC(C)C)NC(=O)[C@H](Cc1c[nH]c2ccccc12)NC(=O)[C@H](CO)NC(=O)[C@@H](NC(=O)[C@@H](NC(=O)[C@H](CCCNC(=N)N)NC(=O)[C@H](C)NC(=O)[C@H](C)NC(=O)CNC(=O)[C@H](CCC(N)=O)NC(=O)[C@H](CCCNC(=N)N)NC(=O)[C@H](C)NC(=O)[C@H](CC(N)=O)NC(=O)[C@H](CCC(=O)O)NC(=O)CCCC[C@@H]1SC[C@@H]2NC(=O)N[C@@H]21)C(C)C)[C@@H](C)O)C(=O)N[C@@H](C)C(=O)NCC(=O)N[C@@H](CCCCN)C(=O)N[C@@H](CCCNC(=N)N)C(=O)N[C@@H](CC(C)C)C(=O)N[C@@H](CCC(=O)O)C(=O)NCC(=O)N[C@@H](CCCNC(=N)N)C(=O)N[C@@H](CO)C(=O)N[C@@H](CCCCN)C(N)=O [191-220] was tested, and the “MIC (minimal inhibitory concentration needed to inhibit bacterial growth)” value [1] was 47 mg/L (≈ 13.1 µM) and the “Hemolysis (peptide concentration causing 50% hemolysis)” value (guinea pig erythrocytes) was 0.31 mg/mL.

With CC[C@H](C)[C@H](NC(=O)[C@H](CCCNC(=N)N)NC(=O)[C@H](CC(C)C)NC(=O)[C@H](CCC(N)=O)NC(=O)[C@H](CCCNC(=N)N)NC(=O)CNC(=O)[C@H](CC(C)C)NC(=O)[C@H](Cc1c[nH]c2ccccc12)NC(=O)[C@H](CO)NC(=O)[C@@H](NC(=O)[C@@H](NC(=O)[C@H](CCCNC(=N)N)NC(=O)[C@H](C)NC(=O)[C@H](C)NC(=O)CNC(=O)CCCC[C@@H]1SC[C@@H]2NC(=O)N[C@@H]21)C(C)C)[C@@H](C)O)C(=O)N[C@@H](C)C(=O)NCC(=O)N[C@@H](CCCCN)C(=O)N[C@@H](CCCNC(=N)N)C(=O)N[C@@H](CC(C)C)C(=O)N[C@@H](CCC(=O)O)C(=O)NCC(=O)N[C@@H](CCCNC(=N)N)C(=O)N[C@@H](CO)C(=O)N[C@@H](CCCCN)C(N)=O [196-220] the “MIC (minimal inhibitory concentration needed to inhibit bacterial growth)” value [1] was 25 mg/L (≈ 8.35 µM) and the “Hemolysis (peptide concentration causing 50% hemolysis)” value (guinea pig erythrocytes) was 0.16 mg/mL.

For CC[C@H](C)[C@H](NC(=O)[C@H](CCCNC(=N)N)NC(=O)[C@H](CC(C)C)NC(=O)[C@H](CCC(N)=O)NC(=O)[C@H](CCCNC(=N)N)NC(=O)CNC(=O)[C@H](CC(C)C)NC(=O)[C@H](Cc1c[nH]c2ccccc12)NC(=O)[C@H](CO)NC(=O)[C@@H](NC(=O)[C@@H](NC(=O)[C@H](CCCNC(=N)N)NC(=O)[C@H](C)NC(=O)[C@H](C)NC(=O)CNC(=O)[C@H](CCC(N)=O)NC(=O)[C@H](CCCNC(=N)N)NC(=O)[C@H](C)NC(=O)[C@H](CC(N)=O)NC(=O)[C@H](CCC(=O)O)NC(=O)[C@@H](NC(=O)[C@@H](NC(=O)[C@H](CC(N)=O)NC(=O)[C@@H](NC(=O)[C@H](CCSC)NC(=O)CNC(=O)[C@H](CC(=O)O)NC(=O)CCCC[C@@H]1SC[C@@H]2NC(=O)N[C@@H]21)[C@@H](C)O)[C@@H](C)O)[C@@H](C)CC)C(C)C)[C@@H](C)O)C(=O)N[C@@H](C)C(=O)NCC(=O)N[C@@H](CCCCN)C(=O)N[C@@H](CCCNC(=N)N)C(=O)N[C@@H](CC(C)C)C(=O)N[C@@H](CCC(=O)O)C(=O)NCC(=O)N[C@@H](CCCNC(=N)N)C(=O)N[C@@H](CO)C(=O)N[C@@H](CCCCN)C(=O)N[C@H](C(=O)N[C@@H](Cc1c[nH]c2ccccc12)C(=O)N[C@@H](Cc1ccccc1)C(N)=O)[C@@H](C)O [184-223], the “MIC (minimal inhibitory concentration needed to inhibit bacterial growth)” value [1] was 46 mg/L (≈ 9.67 µM) and the “Hemolysis (peptide concentration causing 50% hemolysis)” value (guinea pig erythrocytes) was 0.15 mg/mL.
